How the values were obtained:
Format in all cases: in vivo
[1] = tested on: experimental allergic encephalomyelitis (EAE), PLP immunization; experiment: Survival of SWXJ-14 mice with EAE
Description: FIG. 14. Comparison of the survival of SWXJ-14 mice with EAE treated with PTIO and uric acid. SWXJ-mice were immunized with PLP in CFA as described for FIG. 12 and treated once daily with a 2 mg dose of uric acid or PTIO i.p. from day 5 to day 13, followed by two daily doses on day 14 and three daily doses thereafterward.
To more directly compare the action of PTIO and uric acid in EAE we have administered each of these agents in parallel to PLP-immunized SWXJ-14 mice. In these experiments the mice were immunized with PLP and treated with increasing doses of PTIO or uric acid beginning at day 5 after immunization.

[2] = tested on: nitric oxide (NO); experiment: NO levels in spinal cord and brain of SJL mice with EAE
Description: SJL mice are immunized subcutaneously with pMBP in adjuvant to induce EAE, from which they often recover. Commencing ten days post-immunization, groups of mice (n=6) were treated once daily with 2 mg of either PTIO or carboxy-PTIO intraperitoneally and observed for clinical signs of EAE which were graded as detailed in Table 1. […] At 18 days […], NO determinations were performed in several mice from each group.

[3] = tested on: experimental allergic encephalomyelitis (EAE), MBP-specific T cell transfer; experiment: Clinical severity of adoptive transfer EAE in Lewis rats
Text: (§1) Induction of EAE in rats by adoptive transfer of MBP-specific T cells or in SJL or SWXJ-14 mice by immunization with MBP or PLP 139-151, a peptide derived from […] [8], results in variable disease. We have scored the clinical systems of EAE as tabulated below.
______________________________________
(§2) Severity scores and symptoms of Experimental Allergic
(§3) 1 piloerection, tail weakness
(§4) 3 hind limb weakness/paralysis
(§5) 4 hind and forelimb paralysis
(§6) In FIG. 1, EAE was elicited in 11 week old female Lewis rats by the adoptive transfer of 20×10^6 cells of the MBP-specific line 5HGBP.G5 activated by stimulation with MBP and syngeneic APC 48 hours previously and NO levels measured 5 days after transfer. In SWXJ-14 mice, EAE was triggered by two subcutaneous immunizations (d.0 and 7) with 100 μg PLP in CFA over two injection sites, and NO levels measured 18 days later. Results expressed represent the mean values obtained from a minimum of 4 animals. Peak severity of the symptoms of EAE ranged from 2-3 for the rats and 4-5 for the mice. NO was semi-quantitated using spin trapping with DETC and EPR-spectroscopy as described previously.
Rats were injected i.v. with 20×10^6 MBP-specific CD4 T cells activated in vitro. Two days later the animals were treated with a single dose of either PTIO (20 mg) or a mixture of PTIO (20 mg), indomethacin (1 mg), and allopurinol (13 mg). Treatment was continued on a daily basis until day 4 and animals were sacrificed for NO measurement the following day.

[4] = tested on: experimental allergic encephalomyelitis (EAE), PLP immunization; experiment: Clinical severity of PLP-induced EAE in SWXJ-14 mice; conditions: started 4-5 days after immunization with myelin antigens
Description: FIG. 2. Effect of daily administration of c-PTIO (carboxy-PTIO) on EAE in SWXJ-14 mice. EAE was induced in SWJX-14 mice by two subcutaneous immunizations (d.0 and d.7) of […] PLP in CFA over two injection sites. Mice (N=3) were treated beginning on day 5 post-immunization with 2 mg/mouse c-PTIO […] i.p. and was continued until day 16 post-immunization (day 0 being the day of first immunization). Mean severity scores were graded as detailed in Table 1.
FIG. 4. Effect of D609 on the development of EAE in SWXJ-14 mice. SWXJ-mice were immunized with PLP as detailed for FIG. 2. Mice (n=2) were treated i.p. with 1 mg/mouse D609 from day 5 through day 14 post-immunization. Mean severity scores were graded as detailed in Table 1.
FIG. 12. Effect of the administration of various doses of uric acid on EAE in SWXJ-14 mice. EAE was induced in SWXJ-14 mice by two subcutaneous immunizations (d.0 and 7) of […] PLP in CFA over two injection sites. Mice (n=5) were treated once daily, beginning on day 5 post-immunization, with the indicated doses of uric acid. Mean severity scores were graded as detailed in Table 1.
as §1, §2, §3, §4, §5, §6
Clinical symptoms manifest as an ascending paralysis approximately 13 days after immunization and the disease rapidly progresses to its fatal endpoint by day 16-20. […] NO levels in the brains and spinal cords of animals treated with a single daily dose of PTIO were semi-quantitated by spin trapping and EPR spectroscopy on day 17 after immunization, one day after treatment was terminated. […] We expect that the removal of NO by PTIO should not necessarily interfere with the induction of the response responsible for NO production and that as the supplied PTIO is used up NO levels should rapidly return to control values.
In contrast to SJL mice, SWX mice immunized with PLP undergo a progressive,often fatal form of EAE. Clinical symptoms manifest as an ascending paralysis approximately 13 days after immunization and the disease rapidly progresses to its fatal endpoint by days 16-20. […] We conclude that the amount of carboxy-PTIO we administered, especially considering the short in vivo half life of the compound, was only sufficient to delay the onset of the EAE in the SWXJ-14 mouse.
NO is not universally considered to be a molecule with significant in vivo toxicity and peroxynitrite is thought to be the more toxic molecule produced by activated inflammatory cells resulting from the interaction of NO and superoxide. We would henceforth expect that removal of NO would reduce peroxynitrite formation. To determine whether NO or peroxynitrite is more likely to be ultimately responsible for clinical disease in EAE we have performed a series of experiments using uric acid, a known scavenger of peroxynitrite, to treat EAE induced in SWXJ-14 mice by immunization with PLP.

CC1(C)N([O])C(c2ccccc2)=[N+]([O-])C1(C)C [PTIO, 2-phenyl-4,4,5,5-tetramethylimidazoline-1-oxyl-3-oxide]
Improvement in clinical signs of surviving mice (FIG. 14) ([1]; at termination of the experiment): a number were actually beginning to show some improvement in the clinical signs of their disease
Mice still alive (FIG. 14) ([1]; several days after day 18, 2 mg i.p. once daily day 5-13, two doses day 14, then three daily): 40%
NO levels in spinal cord (FIG. 8) ([2]; 2 mg once daily i.p., day 18): lower in the spinal cords
Levels of NO in spinal cord ([2]; SJL mice, i.p. administration): reduce levels of NO detected in spinal cord
NO-spinal cord ([2]; SJL mouse - immunization EAE, Table 2): 1.6 mM
Symptoms of disease (FIG. 6) ([3]; PTIO 20 mg daily from day 2 to day 4 after T cell transfer, alone or in mix): little or no symptoms of disease
Clinical severity ([3]; Rat-adoptive transfer EAE, severity score 1-5, Table 2): 0.8
Duration of alleviation of clinical symptoms between doses ([3]; animals subjected to stimuli that induce EAE (species not specified)): at least 24 hours
Clinical symptoms of EAE ([3]; rats, MBP-specific T cell transfer, i.p. administration): forestall the appearance of clinical symptoms of EAE
Effectiveness when treatment is started after immunization [4]: effective when started 4-5 days after immunization with myelin antigens

Reference: patent publication US5872124A, “Treatment of diseases of the central nervous system using uric acid as a scavenger of peroxynitrite” (Thomas Jefferson University, priority 1996, dated 1999)
